Earlier results as cited in patent publication US7605152B2, “17-hydroxy-4-aza-androstan-3-ones as androgen receptor modulators” (priority 2002, dated 2009).

Key:
[1] = after 7 years of treatment
[2] = after a median of 22 months of treatment

NCCCC(O)(P(=O)([O-])O)P(=O)(O)O.O.O.O.[Na+] [alendronate, (4-amino-1-hydroxybutylidene)-bis-phosphonate monosodium trihydrate]
increase in spinal BMD [1]: 11%

hPTH(1-34): human parathyroid hormone 1-34 fragment (SVSEIQLMHNLGKHLNSMERVEWLRKKLQDVHNF; Parathyroid hormone; UniProt P01270 32-65, looked up, fragment)
reduction in nonvertebral fractures [2]: 54%
reduction in spine fractures [2]: ≥ 65%
